From publication PMC6979384, “Characterization of the plant homeodomain (PHD) reader family for their histone tail interactions” (Epigenetics & Chromatin, 2020)

Tests used:
Experiment in all cases: Histone peptide microarray
Type in all cases: binding, human
AIRE (PP) = conditions: GST-tagged AIRE (PP); histone peptide array; arrays performed twice, n of 4
Procedure, shortened: (§1)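 Purified PHD finger domains fused to GST are screened against 293 synthetic histone peptides bearing one or several post-translational modifications. The protein is used at 0.5 μM, and the signal from four replicate arrays is averaged, with standard deviation given.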

ING3 = conditions: GST-tagged ING3; histone peptide array; arrays performed twice, n of 4
Procedure, shortened: as §1

PHF21A = conditions: GST-tagged PHF21A; histone peptide array; arrays performed twice, n of 4
Procedure, shortened: as §1

CHD5 (PPCC) = conditions: GST-tagged CHD5 (PPCC = Dual PHD + Dual Chromodomain); histone peptide array; arrays performed twice, n of 4
Procedure, shortened: as §1

ING1 = conditions: GST-tagged ING1; histone peptide array; arrays performed twice, n of 4
Procedure, shortened: as §1

KDM5B (3) = conditions: GST-tagged KDM5B (3); histone peptide array; arrays performed twice, n of 4
Procedure, shortened: as §1

DIDO1 = conditions: GST-tagged DIDO1; histone peptide array; arrays performed twice, n of 4
Procedure, shortened: as §1

TAF3 = conditions: GST-tagged TAF3; histone peptide array; arrays performed twice, n of 4
Procedure, shortened: as §1

KDM5B (1) = conditions: GST-tagged KDM5B (1); histone peptide array; arrays performed twice, n of 4
Procedure, shortened: as §1

BPTF (PB) = conditions: GST-tagged BPTF (PB = PHD + Bromodomain); histone peptide array; arrays performed twice, n of 4
Procedure, shortened: as §1

KDM5A (3) = conditions: GST-tagged KDM5A (3); histone peptide array; arrays performed twice, n of 4
Procedure, shortened: as §1

KDM4C (TTP) = conditions: GST-tagged KDM4C (TTP = Tandem Tudor domain + PHD); histone peptide array; arrays performed twice, n of 4
Procedure, shortened: as §1

ING4 = conditions: GST-tagged ING4; histone peptide array; arrays performed twice, n of 4
Procedure, shortened: as §1

PHF8 = conditions: GST-tagged PHF8; histone peptide array; arrays performed twice, n of 4
Procedure, shortened: as §1

PHF13 = conditions: GST-tagged PHF13; histone peptide array; arrays performed twice, n of 4
Procedure, shortened: as §1

MORC3 (CW) = conditions: GST-tagged MORC3 (CW = CW-type Zn-finger); histone peptide array; arrays performed twice, n of 4
Procedure, shortened: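 Readout is array binding signal, reported as the mean and standard deviation over four replicates. Each purified GST-fused PHD domain was incubated at 0.5 μM with a library of 293 modified histone peptides.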

TRIM66 (PB) = conditions: GST-tagged TRIM66 (PB = PHD + Bromodomain); histone peptide array; arrays performed twice, n of 4
Procedure, shortened: as §1

CHD5 (PCC) = conditions: GST-tagged CHD5 (PCC = PHD + Dual Chromodomain); histone peptide array; arrays performed twice, n of 4
Procedure, shortened: as §1

BAZ2B = conditions: GST-tagged BAZ2B; histone peptide array; arrays performed twice, n of 4
Procedure, shortened: as §1

KDM7A = conditions: GST-tagged KDM7A; histone peptide array; arrays performed twice, n of 4
Procedure, shortened: as §1

PHF23 = conditions: GST-tagged PHF23; histone peptide array; arrays performed twice, n of 4
Procedure, shortened: as §1

PHF2 = conditions: GST-tagged PHF2; histone peptide array; arrays performed twice, n of 4
Procedure, shortened: as §1

PHRF1 (RP) = conditions: GST-tagged PHRF1 (RP); histone peptide array; arrays performed twice, n of 4
Procedure, shortened: as §1

KDM5A (1) = conditions: GST-tagged KDM5A (1); histone peptide array; arrays performed twice, n of 4
Procedure, shortened: as §1

CHD4 (PPCC) = conditions: GST-tagged CHD4 (PPCC = Dual PHD + Dual Chromodomain); histone peptide array; arrays performed twice, n of 4
Procedure, shortened: as §1

ING2 = conditions: GST-tagged ING2; histone peptide array; arrays performed twice, n of 4
Procedure, shortened: as §1

RAG2 = conditions: GST-tagged RAG2; histone peptide array; arrays performed twice, n of 4
Procedure, shortened: as §1

ING5 = conditions: GST-tagged ING5; histone peptide array; arrays performed twice, n of 4
Procedure, shortened: as §1

MLL5 = conditions: GST-tagged MLL5; histone peptide array; arrays performed twice, n of 4
Procedure, shortened: as §1

DPF2 (PPC2W2) = conditions: GST-tagged DPF2 (PPC2W2 = Dual PHD + C2W2-type Zn-finger); histone peptide array; arrays performed twice, n of 4
Procedure, shortened: as §1

SP140L = conditions: GST-tagged SP140L; histone peptide array; arrays performed twice, n of 4
Procedure, shortened: as §1

Substance: H3R2me1 + K4me3: H3 1-20
- Array Heatmap signal, AIRE (PP) (AIRE (PP)): 0.5251
- Array Heatmap signal, ING3 (ING3): 0.5249
- Array Heatmap signal, PHF21A (PHF21A): 0.4726
- Array Heatmap signal, CHD5 (PPCC) (CHD5 (PPCC)): 0.5498
- Array Heatmap signal, ING1 (ING1): 0.6223
- Array Heatmap signal, KDM5B (3) (KDM5B (3)): 0.6417
- Array Heatmap signal, DIDO1 (DIDO1): 0.7532
- Array Heatmap signal, TAF3 (TAF3): 0.4375
- Array Heatmap signal, KDM5B (1) (KDM5B (1)): 0.7101
- Array Heatmap signal, BPTF (PB) (BPTF (PB)): 0.4045
- Array Heatmap signal, KDM5A (3) (KDM5A (3)): 0.7567
- Array Heatmap signal, KDM4C (TTP) (KDM4C (TTP)): 0.6626
- Array Heatmap signal, ING4 (ING4): 0.4768
- Array Heatmap signal, PHF8 (PHF8): 0.5511
- Array Heatmap signal, PHF13 (PHF13): 0.6851
- Array Heatmap signal, MORC3 (CW) (MORC3 (CW)): 0.559
- Array Heatmap signal, TRIM66 (PB) (TRIM66 (PB)): 0.573
- Array Heatmap signal, CHD5 (PCC) (CHD5 (PCC)): 0.789
- Array Heatmap signal, BAZ2B (BAZ2B): 0.4816
- Array Heatmap signal, KDM7A (KDM7A): 0.6442
- Array Heatmap signal, PHF23 (PHF23): 0.6587
- Array Heatmap signal, PHF2 (PHF2): 0.6232
- Array Heatmap signal, PHRF1 (RP) (PHRF1 (RP)): 0.4461
- Array Heatmap signal, KDM5A (1) (KDM5A (1)): 0.4891
- Array Heatmap signal, CHD4 (PPCC) (CHD4 (PPCC)): 0.5344
- Array Heatmap signal, ING2 (ING2): 0.6934
- Array Heatmap signal, RAG2 (RAG2): 0.5131
- Array Heatmap signal, ING5 (ING5): 0.3615
- Array Heatmap signal, MLL5 (MLL5): 0.6848
- Array Heatmap signal, DPF2 (PPC2W2) (DPF2 (PPC2W2)): 0.645
- Array Heatmap signal, SP140L (SP140L): 0.3558
